Columns and labels:
Type in all cases: cell-based
[1] = test system: pGL3-NFAT-luc reporter (Ca2+/NFAT signaling); experiment: pGL3-NFAT-luc construct responsiveness in transiently transfected HEK293 cells; conditions: 10-fold serial dilutions
Source text: The luciferase reporter system used in the present study is based on a pGL3-plasmid including three (N)uclear (F)actor of (A)ctivated T cells (NFAT)-responsive elements located upstream of an interleukin-2 (IL2) minimal promoter driving expression of the firefly luciferase reporter gene (pGL3-NFAT-luc plasmid; Addgene (Watertown, MA, USA), cat. number. 17870). To evaluate pGL3-NFAT-luc construct responsiveness, transiently transfected HEK293 cells were stimulated with Phorbol 12-myristate 13-acetate (PMA) and ionomycin, two compounds known to modulate NFAT signaling by mobilization of intracellular Ca^2+ storages.
Figure 4 Evaluation of pGL3-NFAT-luc construct responsiveness to 10-fold serial dilutions to PMA (A) and ionomycin (B) in transiently transfected HEK293 cells. RLU%: Relative Luminescence Unit percentage. […] BL (Basal Levels) = 100% RLU. Different lowercase letters (a,b) on top of bars indicate significant differences (p < 0.05) between concentrations, assessed by one-way ANOVA followed by Tukey’s Multiple Comparison Test (GraphPad Prism version 5.00 Software, La Jolla, CA, USA). […]

saT1R2a/R3 = molecular target: T1, saT1R2a/R3 (Sparus aurata, UniProt A0A671TK95+A0A671VZB3); experiment: saT1R2a/R3 heterodimer transiently transfected in stable pGL3-NFAT-luc-HEK293 (Cl.3) cells, luciferase reporter; conditions: saT1R2a/R3; tested 1–500 mM
T1 sequence (A0A671TK95 20-825): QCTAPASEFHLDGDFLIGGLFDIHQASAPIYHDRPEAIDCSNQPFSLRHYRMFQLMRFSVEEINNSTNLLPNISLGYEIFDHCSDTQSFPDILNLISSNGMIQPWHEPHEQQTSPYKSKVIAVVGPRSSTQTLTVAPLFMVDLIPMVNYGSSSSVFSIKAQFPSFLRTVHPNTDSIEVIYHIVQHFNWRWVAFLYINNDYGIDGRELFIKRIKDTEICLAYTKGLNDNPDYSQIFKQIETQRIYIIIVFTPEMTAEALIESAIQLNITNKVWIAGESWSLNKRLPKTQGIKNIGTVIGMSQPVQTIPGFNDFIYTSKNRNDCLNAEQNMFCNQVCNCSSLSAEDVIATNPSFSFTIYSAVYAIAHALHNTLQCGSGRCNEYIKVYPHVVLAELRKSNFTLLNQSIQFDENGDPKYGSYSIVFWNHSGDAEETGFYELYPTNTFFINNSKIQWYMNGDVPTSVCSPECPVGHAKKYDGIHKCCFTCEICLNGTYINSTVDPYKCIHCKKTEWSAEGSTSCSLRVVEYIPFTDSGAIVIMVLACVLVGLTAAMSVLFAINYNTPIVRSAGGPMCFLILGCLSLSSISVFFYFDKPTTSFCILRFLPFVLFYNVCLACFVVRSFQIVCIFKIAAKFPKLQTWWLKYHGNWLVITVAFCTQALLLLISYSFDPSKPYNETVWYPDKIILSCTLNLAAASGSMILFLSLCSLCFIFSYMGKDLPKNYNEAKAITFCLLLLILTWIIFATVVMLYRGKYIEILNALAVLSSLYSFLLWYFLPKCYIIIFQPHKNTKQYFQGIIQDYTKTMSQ
T1 sequence (A0A671VZB3 24-860): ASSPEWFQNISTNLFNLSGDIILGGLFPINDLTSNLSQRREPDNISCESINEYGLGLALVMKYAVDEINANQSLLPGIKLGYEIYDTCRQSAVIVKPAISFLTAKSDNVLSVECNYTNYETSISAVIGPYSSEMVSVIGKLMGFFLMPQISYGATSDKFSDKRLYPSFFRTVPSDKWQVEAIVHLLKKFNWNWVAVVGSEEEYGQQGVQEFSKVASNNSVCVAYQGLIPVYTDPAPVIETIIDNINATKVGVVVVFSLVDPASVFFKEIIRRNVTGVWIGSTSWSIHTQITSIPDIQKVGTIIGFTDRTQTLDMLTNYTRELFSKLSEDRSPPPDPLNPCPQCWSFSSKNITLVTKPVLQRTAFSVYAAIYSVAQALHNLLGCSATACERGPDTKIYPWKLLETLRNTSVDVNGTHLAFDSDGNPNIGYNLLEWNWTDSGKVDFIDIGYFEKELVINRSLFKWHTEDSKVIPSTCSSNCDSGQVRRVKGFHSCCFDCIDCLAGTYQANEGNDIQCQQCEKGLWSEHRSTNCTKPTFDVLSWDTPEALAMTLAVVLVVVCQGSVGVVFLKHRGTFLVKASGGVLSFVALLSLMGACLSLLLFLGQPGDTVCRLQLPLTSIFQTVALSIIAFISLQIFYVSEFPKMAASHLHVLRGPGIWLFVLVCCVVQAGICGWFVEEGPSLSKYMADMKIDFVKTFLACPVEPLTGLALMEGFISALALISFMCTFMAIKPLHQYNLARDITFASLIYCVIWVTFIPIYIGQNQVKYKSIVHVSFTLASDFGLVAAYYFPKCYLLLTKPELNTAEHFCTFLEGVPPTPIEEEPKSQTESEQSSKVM
Source text: (§1) Figure 6 Amino acid Log-dose response curves of activation in heterologous co-transfected (Cl.3) cells with saT1R1/3 (green dots), saT1R2a/3 (red squares) and saT1R2b/3 (black triangles) heterodimers. Evaluation of L-AA responses was based on the RLU mean ± SEM of four independent determinations normalized to the mean response of the same transfections stimulated with reduced assay medium (Basal Medium Eagle w/o L-glutamate (BME) + 1% FBS), and expressed as the percentage relative to basal levels (BL).
(§2) HEK293 cells were cultured in standard medium DMEM (Gibco, Thermo Fisher, Saint Louis, MO, USA) containing 10% FBS, penicillin (100 U/mL) and streptomycin ([…]) at 37 °C, with a humidified atmosphere at 5% CO2. pGL3-NFAT-luc-HEK293 stable clones were generated by co-transfections of pGL3-NFAT-luc and tgCMV/HyTK plasmids (50:1), the latter harboring the hygromycin phosphotransferase gene, using Lipofectamine LTX according to supplier’s protocols (Thermo Fisher, Saint Louis, MO, USA). Initially, HEK293 cells were selected using DMEM containing 400 μg/mL hygromycin B (Sigma, Darmstadt, Germany) in 24-well plates for two weeks; 24 colonies were further grown out in 96-well plates under reduced hygromycin selection (200 µg/mL) for three weeks. Potentially resistant NFAT-luc-HEK293 clones (n = 22) were validated after incubation in assay medium (DMEM + 1% FBS) containing PMA or Ionomycin (Sigma, Darmstadt, Germany) for 18 h (triplicates, 50,000 cells/well). Luciferase activity was quantified with ONE-Glo™ EX Reagent Kit (Promega, Madison, WI, USA) using a 96-microplate TECAN reader (Trading AG, Switzerland).
(§3) saT1Rs (saT1R1, saT1R2a, saT1R2b saT1R3) and saGαi1-2 genes were RT-PCR amplified using 5’ and 3’ flanking primers carrying HindIII and XhoI restriction sites, respectively. Gel-purified fragments were cloned into pGEM-T Easy vectors, re-sequenced, digested and subcloned into pcDNA™3 (Invitrogen, Carlsbad, CA, USA). Effective saT1R cloning into pcDNA™3 was further verified by HindIII/XhoI digestion. Transient co-transfections were done in 6-well plates (confluence ~70–80%) using 100 μL of reduced serum medium (Opti-MEM, Gibco, Thermo Fisher, Saint Louis, MO, USA) containing 150 ng of each selected pcDNA™3 construct, 1:10 charge ratio of Enhanced Green Fluorescent expressing construct (EGFP; positive control), and pBluescript II SK (+) vector DNA (Addgene, Watertown, MA, USA) up to 1 µg of totally transfected DNA. Following 24 h incubation, cells were washed with fresh standard medium and plated in polylysine treated plates for additional 24 h. Cells were then stimulated with L-AAs and sugar compounds for 18 h in a reduced assay medium (BME w/o L-glutamate; Gibco, Thermo Fisher, Saint Louis, MO, USA) + 1% FBS), to prevent unspecific Ca^2+/NFAT signaling activation and potential saT1R desensitization. All L-AAs and sugars used for in vitro experiments were obtained from Merck KGaA (Darmstadt, Germany).

saT1R2b/R3 = molecular target: T2, saT1R2b/R3 (Sparus aurata, UniProt A0A671TG56+A0A671VZB3); experiment: saT1R2b/R3 heterodimer transiently transfected in stable pGL3-NFAT-luc-HEK293 (Cl.3) cells, luciferase reporter; conditions: saT1R2b/R3; tested 1–500 mM
T2 sequence (A0A671TG56 20-821): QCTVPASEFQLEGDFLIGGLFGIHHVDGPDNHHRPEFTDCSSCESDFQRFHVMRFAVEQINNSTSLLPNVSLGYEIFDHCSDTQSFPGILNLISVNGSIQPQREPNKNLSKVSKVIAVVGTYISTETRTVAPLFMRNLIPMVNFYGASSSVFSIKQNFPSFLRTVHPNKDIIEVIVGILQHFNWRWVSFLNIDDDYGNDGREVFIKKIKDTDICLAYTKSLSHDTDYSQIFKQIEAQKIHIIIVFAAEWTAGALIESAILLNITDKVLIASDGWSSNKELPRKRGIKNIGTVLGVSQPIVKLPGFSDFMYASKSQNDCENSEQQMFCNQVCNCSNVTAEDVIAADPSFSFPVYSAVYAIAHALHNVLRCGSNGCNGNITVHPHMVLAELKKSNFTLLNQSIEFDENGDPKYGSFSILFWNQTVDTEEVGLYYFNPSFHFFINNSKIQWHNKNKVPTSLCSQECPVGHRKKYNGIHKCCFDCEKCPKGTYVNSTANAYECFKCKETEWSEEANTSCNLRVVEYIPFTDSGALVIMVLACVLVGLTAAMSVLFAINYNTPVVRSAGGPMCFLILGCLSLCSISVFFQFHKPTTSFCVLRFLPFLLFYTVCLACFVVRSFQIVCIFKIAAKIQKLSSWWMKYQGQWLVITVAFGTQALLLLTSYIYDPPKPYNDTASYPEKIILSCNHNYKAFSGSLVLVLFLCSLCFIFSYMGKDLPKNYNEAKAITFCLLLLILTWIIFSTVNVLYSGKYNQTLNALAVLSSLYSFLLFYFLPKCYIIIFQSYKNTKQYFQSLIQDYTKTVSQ
T2 sequence (A0A671VZB3 24-860): T1 sequence (A0A671VZB3 24-860)
Source text: as §1, §2, §3

SMILES	luminescence response of pGL3-NFAT-luc construct [1]	concentration with significant activation (saT1R2a/R3) [mM]	concentration with significant activation (saT1R2b/R3) [mM]
CCCCCCCCCCCCCC(=O)O[C@@H]1[C@@H](C)[C@@]2(O)[C@@H](C=C(CO)C[C@]3(O)C(=O)C(C)=C[C@@H]23)[C@@H]2C(C)(C)[C@]12OC(C)=O [PMA, Phorbol 12-myristate 13-acetate]	significant luminescence dose-response increases		
C[C@H](CCC(=O)O)C[C@H](C)C[C@H](C)C(=O)/C=C(\O)[C@H](C)C[C@H](C)C/C=C/[C@@H](C)[C@@H](O)[C@@H](C)[C@@H](O)C[C@@H]1CC[C@@](C)([C@H]2CC[C@@](C)([C@@H](C)O)O2)O1 [ionomycin]	significant luminescence dose-response increases		
OC[C@@H]1O[C@@H](O[C@@]2(CO)O[C@@H](CO)[C@H](O)[C@H]2O)[C@@H](O)[C@H](O)[C@H]1O [L-Sucrose]		100	100

Source: article PMC7594079, “Insights into the Function and Evolution of Taste 1 Receptor Gene Family in the Carnivore Fish Gilthead Seabream (Sparus aurata)” (International Journal of Molecular Sciences, 2020)
